Measured values taken from US5158939A, “Method of stimulating the immune systems of animals and compositions useful therefor” (priority 1990, dated 1992).

Experiments:
[1] = system: RAW 264.7 murine macrophage cells; assay: Cachectin/TNF production by RAW 264.7 cells, immunoblot; format: cell-based; details: other lipid A analogs and precursors
Experimental: For the […] to activate the RAW 264.7 murine macrophage cell line, we chose the toxic deep rough chemotype LPS (ReLPS) from Escherichia coli D31m4, which was recently purified and characterized^15. […] This is a clear example of a lipid A derivative showing strong antagonism against a toxic agonist in the induction of cachectin.
The immunoblot method was used to quantitate the cachectin/TNF production by RAW 264.7 murine macrophage cells. RAW 264.7 cells^4,16 were seeded in 24-well plates (Nunc) at a density of 3×10^5 cells/well in Dulbecco's modified Eagle's medium supplemented with 5 percent fetal calf serum. After 12 hours, cell monolayers were washed twice with 1 ml of serum-free medium and then left covered with […] of the same. An aqueous suspension of DPLA and/or ReLPS was then added to a final concentration indicated. Cells were incubated for 12 hours, after which the medium was removed for measurement of TNF by immunoblotting. One hundred μl of medium was mixed with 100 μl of SDS-containing sample buffer, heated to 100° C. for 5 minutes, and subjected to electrophoresis in a 10-15% polyacrylamide gradient gel. Proteins were then transferred to nitrocellulose electrophoretically, and TNF was visualized through the use of a rabbit anti-mouse TNF polyclonal serum^3,5 applied at a 1:100 dilution, followed by alkaline phosphatase-conjugated goat anti-rabbit IgG (Bio-Rad).
Bands were visualized using nitroblue tetrazolium. Approximately 0.1 ng of cachectin/TNF may be detected as a band. The antiserum also recognized the processing intermediates (prohormones) on Western blot.

[2] = large excess of lipid X; cited from earlier work
[3] = system: neutrophil; details: literature; cited from earlier work
[4] = system: 70Z/3 cells; details: background; cited from earlier work

Compound: monophosphoryl lipid A [reference compound]
- induction of cachectin in RAW cells (immunoblot) [1]: caused the induction of cachectin

Compound: CCCCCCCCCCC[C@@H](O)CC(=O)N[C@H]1[C@@H](OP(=O)(O)O)O[C@H](CO)[C@@H](O)[C@@H]1OC(=O)C[C@H](O)CCCCCCCCCCC [lipid X]
- blocking of toxic effects of lipid A [2]: partially blocking its toxic effects
- induction of cachectin in RAW cells (immunoblot) [1]: caused the induction of cachectin
- inhibition of LPS-induced neutrophil priming [3]: inhibit the LPS-induced neutrophil priming
- activity in stimulating 70Z/3 cells [4]: some activity in stimulating 70Z/3 cells

Compound: CCCCCCCCCCC[C@@H](O)CC(=O)N[C@H]1[C@@H](OP(=O)(O)O)O[C@H](CO)[C@@H](O)[C@@H]1NC(=O)C[C@H](O)CCCCCCCCCCC [3-aza-lipid X]
- inhibition of LPS-induced neutrophil priming [3]: inhibit the LPS-induced neutrophil priming

Compound: CCCCCCCCCCC[C@@H](O)CC(=O)N[C@H]1[C@H](OC[C@H]2O[C@H](OP(=O)(O)O)[C@H](NC(=O)C[C@H](O)CCCCCCCCCCC)[C@@H](OC(=O)C[C@H](O)CCCCCCCCCCC)[C@@H]2O)O[C@H](CO)[C@@H](OP(=O)(O)O)[C@@H]1OC(=O)C[C@H](O)CCCCCCCCCCC [precursor IVA, reference compound]
- induction of cachectin in RAW cells (immunoblot) [1]: caused the induction of cachectin
